Test results as given in patent US20240024385A1, “PROBIOTIC STRAIN FOR REDUCING SERUM URIC ACID, COMPOSITION AND USE THEREOF” (Ningbo Beiyijia Biotechnology Co., Ltd., priority 2022, published 2024).

How the values were obtained:
serum uric acid = test: Combined use of composition 6 with a uric acid-reducing drug, serum uric acid in hyperuricemia patients with tophi; assay type: in vivo, human; parameters: Serum uric acid: unit not given here; settings: for Serum uric acid: hyperuricemia patients with tophi, febuxostat 20 mg/day or benzbromarone 25 mg/day; for Effect on increase of serum uric acid level caused by dissolution of urate crystals by composition 6: small dose combined with composition 6 (febuxostat 20 mg/day or benzbromarone 25 mg/day)
Description: The process of dissolving urate crystals and tophi will result in a temporary increase of the serum uric acid level, which may lead to acute gout inflammation. In order to relieve the increase of the serum uric acid level caused by the dissolution of urate crystals or tophi, the effect of combined use of the composition 6 with a small-dose uric acid-reducing drug on the inhibition of the rise of the serum uric acid level was investigated.
Fifty hyperuricemia patients with tophi were recruited as volunteers, divided into 5 groups, and separately administered with the composition 6 and the uric acid-reducing drug (febuxostat 20 mg/day or benzbromarone 25 mg/day) alone or in combination. The change of serum uric acid during the intervention period was observed.

[1] = 20° C.; cited from earlier work

| SMILES | Serum uric acid (serum uric acid; Day 0 (before intervention)) | Serum uric acid (serum uric acid; Day 30) | Serum uric acid (serum uric acid; Day 60) | Serum uric acid (serum uric acid; Day 90) | Effect on increase of serum uric acid level caused by dissolution of urate crystals by composition 6 (serum uric acid) | Solubility in water [1] |
| --- | --- | --- | --- | --- | --- | --- |
| CCc1oc2ccccc2c1C(=O)c1cc(Br)c(O)c(Br)c1 [benzbromarone] | 640 ± 78 | 593 ± 71 | 463 ± 53 | 405 ± 37 | can inhibit the increase of the serum uric acid level |  |
| Nc1nc2c(ncn2[C@@H]2O[C@H](CO)[C@@H](O)[C@H]2O)c(=O)[nH]1 [guanosine] |  |  |  |  |  | 77.6 mg/100 mL |
| Cc1nc(-c2ccc(OCC(C)C)c(C#N)c2)sc1C(=O)O [febuxostat] | 631 ± 51 | 571 ± 52 | 478 ± 57 | 416 ± 59 | can inhibit the increase of the serum uric acid level |  |
| Nc1nc2c(ncn2[C@@H]2O[C@H](COP(=O)(O)O)[C@@H](O)[C@H]2O)c(=O)[nH]1 [guanosine monophosphate] |  |  |  |  |  | 20 g/100 mL |
| Nc1nc2nc[nH]c2c(=O)[nH]1 [guanine] |  |  |  |  |  | 0.17 mg/100 mL |
